This note sets out measurements from US9757375B2, “Compounds that inhibit human DNA ligases and methods of treating cancer” (University of Maryland, Baltimore, priority 2007, dated 2017).

Entries after “also recorded” stand apart in the source; their conditions may differ. Like-named read-outs stand apart in the source and are kept apart here.

The target of one experiment is T1, human DNA ligase III (Homo sapiens, UniProt P49916).
T1 sequence (P49916 1-862 isoform P49916-4): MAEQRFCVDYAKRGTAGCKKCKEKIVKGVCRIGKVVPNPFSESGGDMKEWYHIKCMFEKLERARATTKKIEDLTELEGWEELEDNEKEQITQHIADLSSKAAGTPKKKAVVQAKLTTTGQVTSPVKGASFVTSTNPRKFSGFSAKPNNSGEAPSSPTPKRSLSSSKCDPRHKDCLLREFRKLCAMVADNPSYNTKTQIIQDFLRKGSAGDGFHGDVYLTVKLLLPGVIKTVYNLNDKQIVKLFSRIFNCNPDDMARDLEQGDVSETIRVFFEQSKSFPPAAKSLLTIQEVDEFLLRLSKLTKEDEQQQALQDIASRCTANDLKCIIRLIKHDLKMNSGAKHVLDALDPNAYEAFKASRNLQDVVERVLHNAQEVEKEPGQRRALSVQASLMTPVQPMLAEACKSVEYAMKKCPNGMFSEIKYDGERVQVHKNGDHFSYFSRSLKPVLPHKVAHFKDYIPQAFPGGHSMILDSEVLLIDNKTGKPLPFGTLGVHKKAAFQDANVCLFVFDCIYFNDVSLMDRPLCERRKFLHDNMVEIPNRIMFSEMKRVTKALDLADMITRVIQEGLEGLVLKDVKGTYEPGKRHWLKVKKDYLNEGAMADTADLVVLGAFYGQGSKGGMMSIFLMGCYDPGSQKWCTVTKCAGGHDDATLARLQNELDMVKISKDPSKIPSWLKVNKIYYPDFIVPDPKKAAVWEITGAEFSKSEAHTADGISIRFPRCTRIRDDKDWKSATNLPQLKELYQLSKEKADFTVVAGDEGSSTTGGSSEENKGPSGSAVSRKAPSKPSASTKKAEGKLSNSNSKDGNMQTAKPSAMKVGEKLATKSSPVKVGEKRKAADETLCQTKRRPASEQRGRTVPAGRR
Nature of the experiment: High-throughput fluorescence-based DNA joining (ligation) assay. The format is biochemical. Conditions: for inhibition of human DNA ligase III, in words: in vitro screen. In short, it runs like this: (§1)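 Ligation joins an AF488-labelled and a BHQ1-labelled oligonucleotide. After denaturation and renaturation with a 20-fold excess of unlabelled competitor strand, the product forms a quenched hairpin, so joining is read as loss of 518 nm fluorescence. Ligase III used a nicked duplex; ligase IV used two duplexes with short complementary single-strand ends.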

For another experiment, the target named is human DNA ligase IV (Homo sapiens, UniProt P49917). Described as above. The format is biochemical. Conditions: for % activity Inhibition hLigIV 100 uM: Ø not defined (0 in Table 5A). In short, it runs like this: as §1
The target in a further experiment is T2, hLigI (Homo sapiens, UniProt P18858).
T2 construct: made in house
The experiment is described as above. The format is biochemical. Conditions: for inhibition of hLigI (DNA ligase I), in words: in vitro screen, 100 μmol/L, the 15 hLigI inhibitors inhibited by >50%. In short, it runs like this: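 Nicked DNA substrate (10 pmol) was incubated with 0.25 pmol hLigI, with or without 100 μmol/L test compound, in duplicate. Afterwards the DNA was denatured and renatured with a 20-fold excess of unmodified oligonucleotide. Ligation forms an AF488/BHQ1 hairpin, read as reduced fluorescence at 518 nm.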

The target of another experiment is T3, T4 DNA ligase (Enterobacteria phage T4, UniProt P00970).
T3 construct: purchased NEB
T3 sequence (P00970 1-487): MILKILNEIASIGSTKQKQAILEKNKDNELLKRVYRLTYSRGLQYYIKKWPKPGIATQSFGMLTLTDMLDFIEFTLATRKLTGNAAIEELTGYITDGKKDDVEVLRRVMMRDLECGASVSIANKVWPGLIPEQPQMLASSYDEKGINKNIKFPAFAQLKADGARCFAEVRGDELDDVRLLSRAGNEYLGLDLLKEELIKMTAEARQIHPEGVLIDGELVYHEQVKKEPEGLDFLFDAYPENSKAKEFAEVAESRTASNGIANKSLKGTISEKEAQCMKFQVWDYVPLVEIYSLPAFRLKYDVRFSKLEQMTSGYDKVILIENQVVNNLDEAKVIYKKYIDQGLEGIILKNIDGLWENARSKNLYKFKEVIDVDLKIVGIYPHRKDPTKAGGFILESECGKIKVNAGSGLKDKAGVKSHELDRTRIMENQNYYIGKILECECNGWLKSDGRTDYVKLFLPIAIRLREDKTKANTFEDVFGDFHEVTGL
Nature of the experiment: High-throughput fluorescence-based DNA joining assay, non-specific inhibitor control. The format is biochemical, bacteriophage T4. In short, it runs like this:
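This counter-screen used a FRET-based DNA joining assay. Duplicate reactions held 10 pmol nicked DNA substrate and 10 units T4 DNA ligase, with or without 100 μmol/L compound. T4 ligase lacks the DNA-binding domain targeted in silico, so compounds inhibiting it were flagged as non-specific, likely DNA-binding.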

[1] abbreviates: 100 uM, Ø not defined (0 in Table 5A).
Where [2] appears, read: 100 μM, read-out: In vitro % inhib hLigIII 100.
Setting [3] is: 100 uM, Ø not defined (0 in Table 5A), read-out: % activity Inhibition hLigIII 100 uM.
[4] abbreviates: 100 μM, read-out: In vitro % inhib hLigIV 100.
[5] abbreviates: 100 uM, read-out: % activity Inhibition hLigI 100 uM.
The mark [6] stands for this setting: 100 μM, read-out: In vitro % inhib hLigI 100.
The mark [7] stands for this setting: 100 μM, read-out: In vitro % inhib T4 100.
Setting [8] is: read-out: % activity Inhibition LigT4 100 uM.

Sequence of human DNA ligase IV (P49917 whole entry): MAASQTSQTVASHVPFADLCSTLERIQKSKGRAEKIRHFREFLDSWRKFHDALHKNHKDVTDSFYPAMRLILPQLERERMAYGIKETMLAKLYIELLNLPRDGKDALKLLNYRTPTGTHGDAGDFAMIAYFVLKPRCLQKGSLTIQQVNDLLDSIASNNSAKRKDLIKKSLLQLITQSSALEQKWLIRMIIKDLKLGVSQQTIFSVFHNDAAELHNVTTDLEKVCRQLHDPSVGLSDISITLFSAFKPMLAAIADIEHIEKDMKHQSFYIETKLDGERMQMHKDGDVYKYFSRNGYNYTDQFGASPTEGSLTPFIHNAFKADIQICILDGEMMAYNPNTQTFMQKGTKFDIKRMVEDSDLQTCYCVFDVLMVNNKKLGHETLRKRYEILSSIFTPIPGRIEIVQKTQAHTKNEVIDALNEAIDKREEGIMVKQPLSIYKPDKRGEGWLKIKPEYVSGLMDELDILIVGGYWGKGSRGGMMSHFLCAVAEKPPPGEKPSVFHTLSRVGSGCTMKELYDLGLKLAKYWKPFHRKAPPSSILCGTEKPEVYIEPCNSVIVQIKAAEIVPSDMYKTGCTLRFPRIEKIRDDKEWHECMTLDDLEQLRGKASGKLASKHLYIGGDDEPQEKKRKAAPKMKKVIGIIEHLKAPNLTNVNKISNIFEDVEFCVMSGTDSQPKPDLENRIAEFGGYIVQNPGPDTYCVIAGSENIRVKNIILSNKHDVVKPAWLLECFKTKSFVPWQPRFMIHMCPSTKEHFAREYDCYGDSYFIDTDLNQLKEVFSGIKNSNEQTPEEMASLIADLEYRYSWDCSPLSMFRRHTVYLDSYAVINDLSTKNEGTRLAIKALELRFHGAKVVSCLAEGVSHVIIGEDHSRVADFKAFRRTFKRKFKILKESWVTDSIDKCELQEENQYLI
Sequence of human DNA ligase IV (Q13426 whole entry partner): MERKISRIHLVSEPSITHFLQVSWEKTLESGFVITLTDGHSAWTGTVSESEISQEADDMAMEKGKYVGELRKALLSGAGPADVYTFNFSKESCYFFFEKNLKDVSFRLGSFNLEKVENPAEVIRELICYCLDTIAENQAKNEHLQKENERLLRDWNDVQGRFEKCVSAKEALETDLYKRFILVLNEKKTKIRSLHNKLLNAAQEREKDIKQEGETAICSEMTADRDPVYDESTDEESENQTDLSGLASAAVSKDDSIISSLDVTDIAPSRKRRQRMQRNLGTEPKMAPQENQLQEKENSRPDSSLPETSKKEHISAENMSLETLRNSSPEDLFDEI
T2 sequence (P18858 whole entry): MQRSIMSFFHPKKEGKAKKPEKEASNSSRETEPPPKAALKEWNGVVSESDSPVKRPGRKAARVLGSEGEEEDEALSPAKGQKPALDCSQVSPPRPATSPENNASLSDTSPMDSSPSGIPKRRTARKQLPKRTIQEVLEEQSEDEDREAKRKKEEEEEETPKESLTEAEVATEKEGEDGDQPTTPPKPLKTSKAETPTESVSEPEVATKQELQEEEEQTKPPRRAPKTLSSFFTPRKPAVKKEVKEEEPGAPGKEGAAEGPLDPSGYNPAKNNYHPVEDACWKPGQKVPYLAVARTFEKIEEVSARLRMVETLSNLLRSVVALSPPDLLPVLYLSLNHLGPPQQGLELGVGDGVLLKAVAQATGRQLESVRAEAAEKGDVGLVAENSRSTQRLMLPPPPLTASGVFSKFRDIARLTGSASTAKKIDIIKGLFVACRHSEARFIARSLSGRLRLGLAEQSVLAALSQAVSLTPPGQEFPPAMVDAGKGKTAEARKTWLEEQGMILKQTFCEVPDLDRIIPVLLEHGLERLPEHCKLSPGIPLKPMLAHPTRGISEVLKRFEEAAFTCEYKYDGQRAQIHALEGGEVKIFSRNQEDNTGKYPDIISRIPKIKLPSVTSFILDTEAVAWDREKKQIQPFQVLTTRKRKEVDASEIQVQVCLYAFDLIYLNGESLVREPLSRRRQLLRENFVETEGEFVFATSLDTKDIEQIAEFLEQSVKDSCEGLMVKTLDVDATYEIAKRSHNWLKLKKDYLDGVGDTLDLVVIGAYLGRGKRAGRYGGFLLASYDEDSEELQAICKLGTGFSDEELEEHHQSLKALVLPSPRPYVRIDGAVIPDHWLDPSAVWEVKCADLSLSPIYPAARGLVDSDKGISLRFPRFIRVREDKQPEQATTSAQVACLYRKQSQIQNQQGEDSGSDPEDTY

For `CS(=O)(=O)NNC(=O)C(=O)NNc1ccccc1` [Compound 184], on human DNA ligase III (100 μM), the “% of inhibition @ 100 μM (Helen's data) hLigIII” value is given as “NI (NI- no inhibition)” and the “In vitro % inhib hLigIII 100 (μM)” value amounted to 0%. Besides, the “% activity Inhibition hLigIII 100 uM” value at human DNA ligase III (setting [1]) is “Ø”. Further, on human DNA ligase IV (100 μM), the “% of inhibition @ 100 μM (Helen's data) hLigIV” value is “NI (NI- no inhibition)” and the “In vitro % inhib hLigIV 100 (μM)” value is listed as 0%. The “% activity Inhibition hLigIV 100 uM” value at human DNA ligase IV is “Ø”. Moreover, the “% activity Inhibition hLigI 100 uM” value at hLigI (100 uM) was 37.7 ± 12.4%. Moreover, at hLigI (100 μM), the “% of inhibition @ 100 μM (Helen's data) hLigI” value was determined as 38% and the “In vitro % inhib hLigI 100 (μM)” value stood at 38 ± 12%. Also, the “inhibition of hLigI (DNA ligase I), in words” value (“inhibition of hLigI” for short) at hLigI is listed as “specific for DNA ligase I”. Besides, on T4 DNA ligase (100 uM), the “% activity Inhibition LigT4 100 uM” value turned out to be 0.42 ± 1.4%. Further, the “In vitro % inhib T4 100 (μM)” value on T4 DNA ligase (100 μM) was 1 ± 1%.

On to `O=C(c1ccc(O)cc1)c1ccccc1O` [Compound 200], for which the inhibition at 100 µM was 60 ± 5% at human DNA ligase III (setting [2]); 59.5 ± 5.2% at human DNA ligase III (setting [3]); 60% on human DNA ligase III (read-out: % of inhibition @ 100 μM (Helen's data) hLigIII); less than 20% on human DNA ligase IV (100 μM, read-out: % of inhibition @ 100 μM (Helen's data) hLigIV); 0% at human DNA ligase IV (setting [4]); 50.7 ± 10.9% on hLigI (setting [5]). Further, the inhibition at 100 µM at hLigI (100 μM, read-out: % of inhibition @ 100 μM (Helen's data) hLigI) was found to be 51%; at hLigI (setting [6]), 51 ± 11%; at T4 DNA ligase (setting [7]) it was 0%; at T4 DNA ligase (setting [8]), 0%. On human DNA ligase III, the “inhibition of human DNA ligase III, in words” value was “specifically inhibit DNA ligases I and III”. Also, on human DNA ligase IV, the “% activity Inhibition hLigIV 100 uM” value is “Ø”. Further, the “inhibition of hLigI” value on hLigI was “inhibited hLigI; also recorded: specifically inhibit DNA ligases I and III”.

`CCCCC(=O)c1ccc(O)cc1O` [Compound 213]: the inhibition at 100 µM at human DNA ligase III (setting [2]) worked out at 25 ± 1%; on human DNA ligase III (setting [3]) it was 25.2 ± 0.46%; on human DNA ligase IV (setting [4]) it was 0%; at hLigI (setting [5]), 36.4 ± 8.6%; at hLigI (setting [6]), 36 ± 9%; at T4 DNA ligase (setting [7]) it was 0%. Moreover, the “inhibition of human DNA ligase III, in words” value against human DNA ligase III was “specifically inhibit DNA ligases I and III”. Also, the “% activity Inhibition hLigIV 100 uM” value at human DNA ligase IV is “Ø”. Also, the “inhibition of hLigI” value against hLigI was “specifically inhibit DNA ligases I and III”.

Take `COc1ccc(-c2cnc3c(O)nc(O)nc3n2)cc1` [Compound 190]: the inhibition at 100 µM on human DNA ligase III (setting [2]) came out at 0%; on human DNA ligase IV (setting [4]), 0%; at hLigI (setting [5]), 52.5 ± 6.6%; on hLigI (setting [6]), 53 ± 7%; on T4 DNA ligase (setting [7]), 5 ± 1%; at T4 DNA ligase (setting [8]), 5.4 ± 0.74%. Also, the “% activity Inhibition hLigIII 100 uM” value on human DNA ligase III (setting [1]) is “Ø”. Besides, the “% activity Inhibition hLigIV 100 uM” value at human DNA ligase IV is given as “Ø”. The “inhibition of hLigI” value on hLigI is reported as “inhibited hLigI; also recorded: specific for DNA ligase I”.
